Laboratory results as given in PubChem BioAssay (NCI).
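In this assay, cells in 96-well plates receive the compound at five concentrations for 48 hours. Endpoints are linearly interpolated between the surrounding concentrations. Definition used: TGI = concentration required for complete inhibition of growth.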

Assays:
Test in all cases: DTP human tumour cell line panel, 48 h
HOP-62 NSCLC = test system: HOP-62 NSCLC
UACC-257 melanoma = test system: UACC-257 melanoma
HOP-18 NSCLC = test system: HOP-18 NSCLC
RPMI-8226 leukemia = test system: RPMI-8226 leukemia
UO-31 renal = test system: UO-31 renal
SNB-75 CNS = test system: SNB-75 CNS
786-0 renal = test system: 786-0 renal
SK-MEL-5 melanoma = test system: SK-MEL-5 melanoma
HCT-116 colon = test system: HCT-116 colon
NCI-H23 lung = test system: NCI-H23 lung
HT29 colon = test system: HT29 colon
NCI-H522 lung = test system: NCI-H522 lung
A498 renal = test system: A498 renal
SNB-19 CNS = test system: SNB-19 CNS
M14 melanoma = test system: M14 melanoma
DMS 273 small cell lung = test system: DMS 273 small cell lung
SK-OV-3 ovarian = test system: SK-OV-3 ovarian
CCRF-CEM leukemia = test system: CCRF-CEM leukemia
SK-MEL-2 melanoma = test system: SK-MEL-2 melanoma
MOLT-4 leukemia = test system: MOLT-4 leukemia
OVCAR-4 ovarian = test system: OVCAR-4 ovarian
HL-60(TB) leukemia = test system: HL-60(TB) leukemia
ACHN renal = test system: ACHN renal
RXF-631 renal = test system: RXF-631 renal
XF 498 CNS = test system: XF 498 CNS
OVCAR-8 ovarian = test system: OVCAR-8 ovarian
SR leukemia = test system: SR leukemia
IGROV1 ovarian = test system: IGROV1 ovarian
SNB-78 CNS = test system: SNB-78 CNS
K-562 leukemia = test system: K-562 leukemia
HCT-15 colon = test system: HCT-15 colon
DLD-1 colon = test system: DLD-1 colon
M19-MEL melanoma = test system: M19-MEL melanoma
SK-MEL-28 melanoma = test system: SK-MEL-28 melanoma
NCI-H460 lung = test system: NCI-H460 lung
SN12C renal = test system: SN12C renal
SW-620 colon = test system: SW-620 colon
CAKI-1 renal = test system: CAKI-1 renal
KM20L2 colon = test system: KM20L2 colon
SF-295 CNS = test system: SF-295 CNS
A549 NSCLC = test system: A549 NSCLC
UACC-62 melanoma = test system: UACC-62 melanoma
EKVX NSCLC = test system: EKVX NSCLC
RXF 393 renal = test system: RXF 393 renal
LXFL 529 NSCLC = test system: LXFL 529 NSCLC
MALME-3M melanoma = test system: MALME-3M melanoma
SF-539 CNS = test system: SF-539 CNS
KM12 colon = test system: KM12 colon
SF-268 CNS = test system: SF-268 CNS
HCC-2998 colon = test system: HCC-2998 colon
DMS 114 small cell lung = test system: DMS 114 small cell lung
OVCAR-5 ovarian = test system: OVCAR-5 ovarian
TK-10 renal = test system: TK-10 renal
LOX IMVI melanoma = test system: LOX IMVI melanoma
U251 CNS = test system: U251 CNS
NCI-H226 lung = test system: NCI-H226 lung
COLO 205 colon = test system: COLO 205 colon
OVCAR-3 ovarian = test system: OVCAR-3 ovarian

Measured: TGI

COC(=O)c1ccc2n[se]nc2c1
> 100 µM: HOP-62 NSCLC | UACC-257 melanoma | HOP-18 NSCLC | RPMI-8226 leukemia | UO-31 renal | SNB-75 CNS | 786-0 renal | SK-MEL-5 melanoma | HCT-116 colon | NCI-H23 lung | HT29 colon | NCI-H522 lung | A498 renal | SNB-19 CNS | M14 melanoma | DMS 273 small cell lung | SK-OV-3 ovarian | CCRF-CEM leukemia | SK-MEL-2 melanoma | MOLT-4 leukemia | OVCAR-4 ovarian | HL-60(TB) leukemia | ACHN renal | RXF-631 renal | XF 498 CNS | OVCAR-8 ovarian | SR leukemia | IGROV1 ovarian | SNB-78 CNS | K-562 leukemia | HCT-15 colon | DLD-1 colon | M19-MEL melanoma | SK-MEL-28 melanoma | NCI-H460 lung | SN12C renal | SW-620 colon | CAKI-1 renal | KM20L2 colon | SF-295 CNS | A549 NSCLC | UACC-62 melanoma | EKVX NSCLC | RXF 393 renal | LXFL 529 NSCLC | MALME-3M melanoma | SF-539 CNS | KM12 colon | SF-268 CNS | HCC-2998 colon | DMS 114 small cell lung | OVCAR-5 ovarian | TK-10 renal | LOX IMVI melanoma | U251 CNS

C[N+](C)(C)CC(=O)NC(=O)N/N=C\C(CC#N)CN(Cc1ccccc1)Cc1ccccc1 (configuration not stated)
> 100 µM: HOP-62 NSCLC | UACC-257 melanoma | HOP-18 NSCLC | UO-31 renal | SNB-75 CNS | 786-0 renal | SK-MEL-5 melanoma | HCT-116 colon | NCI-H23 lung | HT29 colon | NCI-H522 lung | A498 renal | SNB-19 CNS | M14 melanoma | DMS 273 small cell lung | SK-OV-3 ovarian | NCI-H226 lung | CCRF-CEM leukemia | SK-MEL-2 melanoma | MOLT-4 leukemia | OVCAR-4 ovarian | HL-60(TB) leukemia | ACHN renal | COLO 205 colon | RXF-631 renal | XF 498 CNS | OVCAR-8 ovarian | SR leukemia | IGROV1 ovarian | SNB-78 CNS | K-562 leukemia | HCT-15 colon | DLD-1 colon | M19-MEL melanoma | SK-MEL-28 melanoma | NCI-H460 lung | SN12C renal | SW-620 colon | CAKI-1 renal | KM20L2 colon | SF-295 CNS | A549 NSCLC | UACC-62 melanoma | EKVX NSCLC | RXF 393 renal | LXFL 529 NSCLC | MALME-3M melanoma | SF-539 CNS | KM12 colon | SF-268 CNS | HCC-2998 colon | OVCAR-3 ovarian | DMS 114 small cell lung | OVCAR-5 ovarian | TK-10 renal | LOX IMVI melanoma | U251 CNS
